Publication PMC11538426 (Scientific Reports, 2024)

Assays:
CD3+ T cells = conditions: cited from earlier work
monocytes = conditions: cited from earlier work
[1] = tested on: monocyte-derived DCs (moDCs); assay type: cell-based, human; conditions: rCD40L 5 µg/mL, 72 h

Substance | Induction of IL-12p70 in isolated CD3+ T cells in absence of DC engagement (CD3+ T cells) | Differentiation of monocytes to CD14neg cells (monocytes) | Differentiation of cells within moDC cultures to CD14neg DC phenotype ([1]; after 7 days GM-CSF/IL-4, Fig. 1a) | Proliferative capacity of moDCs (Ki67 expression) ([1]; Fig. 1b)
RSKAKNPLYR linked to R8 [IK14800] | contributes to induction of IL-12p70 | does not promote differentiation of monocytes to CD14^neg cells |  | 
rCD40L: recombinant CD40 ligand (BioLegend), used at 5 µg/mL |  |  | near-total differentiation of cells to the CD14^neg DC phenotype | not associated with a significant change in the proliferative capacity
